T/C data for 18 compounds are collected here from PubChem BioAssay AID192 (DTP/NCI, 2004).

Several values for one entry are separate records, joined by “and”; a condition that tells them apart may be missing. Identical values can stand only once. Toxic doses and inconclusive results are not listed. Numbered stars: 1 amine (or outer) side, 2 acyl side, 3 side chain; on linkers, the order of the positions; unused ones are H or OH. Bridge positions count the residues as written; N and C are the ends. Square brackets hold non-standard residues; d marks the D form. Peptide text beside a SMILES is read from it. I, II: the chains in the order shown. Actinocin(9to1) = Cc1c2oc3c(C)ccc(C(=O)[*:1])c3nc-2c(C(=O)[*:2])c(N)c1=O; NMeV = CN[CH](C(=O)O)C(C)C; Aze = O=C(O)[CH]1CCN1; Sar = CNCC(=O)O

The assay relates to BDF1 mice, B16 melanoma ip, median survival T/C. The assay can be described thus: NCI In Vivo Anticancer Drug Screen. Data for tumor model B16 Melanoma (intraperitoneal) in B6D2F1 (BDF1) mice. As to conditions: endpoint: median survival time, higher = longer survival. In short, it runs like this: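 The ratio T/C compares compound-treated mice with vehicle-treated controls, using survival or tumor size as the endpoint in a transplantable tumor model.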

Where [1] appears, read: dose: 25.0 mg/kg/injection, schedule: Q01DX009 (ip), vehicle: saline with Tween-80.
The mark [2] stands for this setting: dose: 50.0 mg/kg/injection, schedule: Q01DX009 (ip), vehicle: saline with Tween-80.
The mark [3] stands for this setting: dose: 6.25 mg/kg/injection, schedule: Q01DX009 (ip), vehicle: saline.
Setting [4] is: dose: 12.5 mg/kg/injection, schedule: Q01DX009 (ip), vehicle: saline.
[5] abbreviates: dose: 25.0 mg/kg/injection, schedule: Q01DX009 (ip), vehicle: saline.
[6] abbreviates: dose: 100.0 mg/kg/injection, schedule: Q01DX009 (ip), vehicle: saline with Tween-80.
Setting [7] is: dose: 3.12 mg/kg/injection, schedule: Q01DX009 (ip), vehicle: saline.
Setting [8] is: dose: 100.0 mg/kg/injection, schedule: Q01DX009 (ip), vehicle: Klucel (hydroxypropylcellulose) (HPC).
Setting [9] is: dose: 50.0 mg/kg/injection, schedule: Q01DX009 (ip), vehicle: saline.
[10] abbreviates: dose: 25.0 mg/kg/injection, schedule: Q01DX009 (ip), vehicle: Klucel (hydroxypropylcellulose) (HPC).

Turning to `Cc1cc(C)c(CN)cc1CN`, the T/C by setting is: under setting [1], 108 % of control; under setting [2], 112 % of control.

`O=C1NC(=O)c2cccc3cccc1c23`: the T/C (dose: 100.0 mg/kg/injection, schedule: Q04DX003 (ip), vehicle: saline with Tween-80) is 94 % of control.

With `Cc1c2oc3c(C)ccc(C(=O)NC4C(=O)NC(C(C)C)C(=O)N5CCC5C(=O)N(C)CC(=O)N(C)C(C(C)C)C(=O)OC4C)c3nc-2c(C(=O)NC2C(=O)NC(C(C)C)C(=O)N3CCC3C(=O)N(C)CC(=O)N(C)C(C(C)C)C(=O)OC2C)c(N)c1=O` (stereo not drawn) (I: TV[Aze][Sar][NMeV] / II: TV[Aze][Sar][NMeV]; ester I:1-I:C, II:1-II:C; linker I:N-II:N via Actinocin(9to1); configuration not given here), the T/C reads like this: (dose: 0.3 mg/kg/injection, schedule: Q04DX003 (ip), vehicle: saline + alcohol) 169 % of control; (dose: 0.45 mg/kg/injection, schedule: Q04DX003 (ip), vehicle: saline + alcohol) 163 % of control; (dose: 100.0 micrograms/kg/injection, schedule: Q01DX009 (ip), vehicle: saline + alcohol) 159 % of control; (dose: 150.0 micrograms/kg/injection, schedule: Q01DX009 (ip), vehicle: saline + alcohol) 161 % of control.

As to `O=C1C=C(SCCO)C(=O)c2ccccc21`, the T/C by setting is: (dose: 13.0 micrograms/kg/injection, schedule: Q01DX009 (ip), vehicle: saline with Tween-80) 100 % of control; (dose: 18.7 micrograms/kg/injection, schedule: Q01DX009 (ip), vehicle: saline with Tween-80) 94 % of control; (dose: 20.0 micrograms/kg/injection, schedule: Q01DX009 (ip), vehicle: saline with Tween-80) 92 % of control; (dose: 30.0 micrograms/kg/injection, schedule: Q01DX009 (ip), vehicle: saline with Tween-80) 95 % of control; (dose: 45.0 micrograms/kg/injection, schedule: Q01DX009 (ip), vehicle: saline with Tween-80) 117 % of control; (dose: 90.0 micrograms/kg/injection, schedule: Q01DX009 (ip), vehicle: saline with Tween-80) 107 % of control.

Take `CCCCC[C@H](CN(C)C)[C@H](O)/C=C/c1ccc(Cl)cc1`: the T/C was 95 % of control under setting [3], 100 % of control under setting [4] and 104 % of control under setting [5].

With `O=C(O)C1(C(=O)O)CCCCC1.[NH-]CC1(C[NH-])CCCCC1.[Pt+2]`, the T/C was 121 % of control under setting [3], 122 % of control under setting [4] and 122 % of control under setting [5].

In the case of `CC[C@@H]1O[C@@H]([C@@H]2CC[C@](O)([C@]3(C)CC[C@@H]([C@@H](C)[C@@]4(O)CC[C@H](C)[C@@H](C[C@@]5(O)O[C@@H]([C@@H](C)[C@H](O)C[C@H]6CC[C@H](C)[C@@H]([C@@H](C)C(=O)O)O6)CC[C@@H]5C)O4)O3)O2)CC[C@@]1(C)O`, the T/C (dose: 0.12 mg/kg/injection, schedule: Q01DX009 (ip), vehicle: saline) was 91 % of control; the T/C (dose: 0.25 mg/kg/injection, schedule: Q01DX009 (ip), vehicle: saline) is 89 % of control; the T/C (dose: 0.5 mg/kg/injection, schedule: Q01DX009 (ip), vehicle: saline) is 96 % of control.

`Cc1ccc(S(=O)(=O)NC(=S)S)cc1`: the T/C is 88 % of control (dose: 12.5 mg/kg/injection, schedule: Q01DX009 (ip), vehicle: saline with Tween-80); 98 % of control and 122 % of control under setting [1]; 97 % of control under setting [2]; 92 % of control and 122 % of control under setting [6].

As for `O=C(NCCCCCCNC(=O)N1CC1)N1CC1`, the T/C was 101 % of control (dose: 0.3 mg/kg/injection, schedule: Q01DX009 (ip), vehicle: saline); 96 % of control (dose: 0.6 mg/kg/injection, schedule: Q01DX009 (ip), vehicle: saline); 103 % of control (dose: 1.2 mg/kg/injection, schedule: Q01DX009 (ip), vehicle: saline); 92 % of control (dose: 2.4 mg/kg/injection, schedule: Q01DX009 (ip), vehicle: saline); 103 % of control (dose: 4.8 mg/kg/injection, schedule: Q01DX009 (ip), vehicle: saline).

For `C=C(C)C12CC(C)C34OC(CCCCCCCCCCC)(OC1C3C1OC1(CO)C(O)C1(O)C(=O)C(C)=CC14C)O2` (stereo not drawn), the T/C reads like this: (dose: 0.05 mg/kg/injection, schedule: Q01DX009 (ip), vehicle: distilled water + Tween-80) 103 % of control; (dose: 0.1 mg/kg/injection, schedule: Q01DX009 (ip), vehicle: distilled water + Tween-80) 102 % of control; (dose: 0.2 mg/kg/injection, schedule: Q01DX009 (ip), vehicle: distilled water + Tween-80) 91 % of control; (dose: 0.4 mg/kg/injection, schedule: Q01DX009 (ip), vehicle: distilled water + Tween-80) 90 % of control.

With `COc1ccc2c(=O)c(C)c(C)oc2c1CN1CCOCC1`, the T/C was 104 % of control (dose: 0.39 mg/kg/injection, schedule: Q01DX009 (ip), vehicle: saline); 114 % of control (dose: 0.78 mg/kg/injection, schedule: Q01DX009 (ip), vehicle: saline); 108 % of control (dose: 1.56 mg/kg/injection, schedule: Q01DX009 (ip), vehicle: saline); 98 % of control under setting [7]; 115 % of control under setting [3].

On to `COc1cc2cc(c1Cl)N(C)C(=O)CC(OC(=O)C(C)N(C)C(=O)C(C)C)C1(C)OC1C(C)C1CC(O)(NC(=O)O1)C(OC)/C=C/C=C(C)C2` (stereo not drawn), for which the T/C was 171 % of control (dose: 5.0 micrograms/kg/injection, schedule: Q01DX009 (ip), vehicle: saline + alcohol) and 177 % of control (dose: 10.0 micrograms/kg/injection, schedule: Q01DX009 (ip), vehicle: saline + alcohol).

Turning to `Cc1cnc2c(=O)[nH]c(=O)[nH]c2n1`, the T/C is 90 % of control under setting [8] and 93 % of control (dose: 400.0 mg/kg/injection, schedule: Q01DX009 (ip), vehicle: Klucel (hydroxypropylcellulose) (HPC)).

`C=CCC(N)Cc1ccccc1` (stereo not drawn): the T/C by setting is: under setting [7], 105 % of control; (dose: 3.12 mg/kg/injection, schedule: Q04DX003 (ip), vehicle: saline) 112 % of control; under setting [3], 105 % of control; (dose: 6.25 mg/kg/injection, schedule: Q04DX003 (ip), vehicle: saline) 105 % of control; under setting [4], 111 % of control; (dose: 12.5 mg/kg/injection, schedule: Q04DX003 (ip), vehicle: saline) 97 % of control. The T/C by setting is: under setting [5], 100 % of control; (dose: 25.0 mg/kg/injection, schedule: Q04DX003 (ip), vehicle: saline) 100 % of control; under setting [9], 110 % of control; (dose: 50.0 mg/kg/injection, schedule: Q04DX003 (ip), vehicle: saline) 100 % of control.

Regarding `c1cc2n(n1)CCN2`, the T/C under setting [4] is 102 % of control; the T/C (dose: 18.75 mg/kg/injection, schedule: Q01DX009 (ip), vehicle: saline) was 116 % of control; the T/C under setting [5] is 102 % of control; the T/C (dose: 37.5 mg/kg/injection, schedule: Q01DX009 (ip), vehicle: saline) is 100 % of control; the T/C under setting [9] is 106 % of control; the T/C (dose: 75.0 mg/kg/injection, schedule: Q01DX009 (ip), vehicle: saline) was 93 % of control. In addition, the T/C reads like this: (dose: 150.0 mg/kg/injection, schedule: Q01DX009 (ip), vehicle: saline) 106 % of control; (dose: 200.0 mg/kg/injection, schedule: Q04DX003 (ip), vehicle: saline with Tween-80) 108 % of control; (dose: 400.0 mg/kg/injection, schedule: Q04DX003 (ip), vehicle: saline with Tween-80) 108 % of control.

Regarding `COC1=C(Br)[C@H](O)[C@](O)(CC#N)C=C1Br`, the T/C runs as follows: (dose: 17.5 mg/kg/injection, schedule: Q01DX009 (ip), vehicle: Klucel (hydroxypropylcellulose) (HPC)) 105 % of control; under setting [10], 87 % of control; (dose: 35.0 mg/kg/injection, schedule: Q01DX009 (ip), vehicle: Klucel (hydroxypropylcellulose) (HPC)) 99 % of control; (dose: 70.0 mg/kg/injection, schedule: Q01DX009 (ip), vehicle: Klucel (hydroxypropylcellulose) (HPC)) 107 % of control.

`COc1ccccc1NC(=O)Nc1cccc(C(C)=O)c1`: the T/C reads like this: under setting [6], 94 % of control; (dose: 200.0 mg/kg/injection, schedule: Q01DX009 (ip), vehicle: saline with Tween-80) 92 % of control.

`Cn1c(O)c(/C=C2\C=Nc3ccccc32)n(C)c1=N`: the T/C is 96 % of control (dose: 12.5 mg/kg/injection, schedule: Q01DX009 (ip), vehicle: Klucel (hydroxypropylcellulose) (HPC)); 100 % of control under setting [10]; 101 % of control (dose: 50.0 mg/kg/injection, schedule: Q01DX009 (ip), vehicle: Klucel (hydroxypropylcellulose) (HPC)); 97 % of control under setting [8].
